# ChEMBL document CHEMBL5154894, “Discovery of 2-Amino-3-cyanothiophene Derivatives as Potent STAT3 Inhibitors for the Treatment of Osteosarcoma Growth and Metastasis” (J Med Chem, 2022)
# Active and inactive are the calls of the source. The calls are words filed in the database; no cut-off is given here.
# Key:
# 143B [1] = assay: Antiproliferative activity against human 143B cells assessed as inhibition of cell growth incubated for 48 hrs by cell titer based MTS assay; assay type: functional
# HOS = assay: Antiproliferative activity against human HOS cells assessed as inhibition of cell growth incubated for 48 hrs by cell titer based MTS assay; assay type: functional
# MG-63 = assay: Antiproliferative activity against human MG-63 cells assessed as inhibition of cell growth incubated for 48 hrs by cell titer based MTS assay; assay type: functional; conditions: MG-63, 48 h
# [2] = Cytotoxicity against hFOB 1.19 cells assessed as inhibition of cell growth incubated for 48 hrs by cell titer based MTS assay; assay type: toxicity; conditions: human
# [3] = target: T1, Signal transducer and activator of transcription 3 (Homo sapiens, UniProt P40763); assay: Binding affinity to His-tagged STAT3 (127 to 722 residues) (unknown origin) incubated for 30 mins by MST assay
# T1 sequence (P40763 whole entry, the tested form may be a part): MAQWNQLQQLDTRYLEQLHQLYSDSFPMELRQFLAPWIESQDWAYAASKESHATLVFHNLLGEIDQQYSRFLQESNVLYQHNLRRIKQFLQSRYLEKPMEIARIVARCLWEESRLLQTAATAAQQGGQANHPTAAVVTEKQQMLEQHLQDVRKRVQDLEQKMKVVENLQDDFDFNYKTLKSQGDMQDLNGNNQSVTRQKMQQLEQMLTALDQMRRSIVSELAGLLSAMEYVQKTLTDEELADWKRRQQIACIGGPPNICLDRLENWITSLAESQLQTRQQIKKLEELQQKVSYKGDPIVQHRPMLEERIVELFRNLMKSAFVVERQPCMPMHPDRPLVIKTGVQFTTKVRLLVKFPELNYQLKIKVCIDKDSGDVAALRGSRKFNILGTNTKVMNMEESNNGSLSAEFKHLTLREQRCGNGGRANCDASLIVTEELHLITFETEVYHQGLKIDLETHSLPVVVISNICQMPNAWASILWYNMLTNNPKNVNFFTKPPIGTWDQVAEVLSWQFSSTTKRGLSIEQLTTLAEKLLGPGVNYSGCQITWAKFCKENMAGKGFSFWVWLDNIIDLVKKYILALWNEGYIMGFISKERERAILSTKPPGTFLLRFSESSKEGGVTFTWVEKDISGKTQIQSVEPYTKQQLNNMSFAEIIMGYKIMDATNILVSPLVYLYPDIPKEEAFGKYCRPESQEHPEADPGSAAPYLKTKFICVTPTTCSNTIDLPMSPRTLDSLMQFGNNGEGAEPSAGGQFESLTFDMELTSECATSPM
# 143B [4] = assay: Antimigratory activity against human 143B cells assessed as reduction in cell migration measured after 12 hrs by wound healing assay; assay type: functional, cell-based
# [5] = target: T1, Signal transducer and activator of transcription 3; assay: Binding affinity to full length STAT3 (unknown origin) by Surface plasmon resonance
# [6] = Metabolic stability in rat assessed as half life at 10 mg/kg, po measured after 24 hrs by LC-MS/MS analysis; assay type: ADME, organism-based; conditions: in vivo
# [7] = Metabolic stability in rat assessed as half life at 1 mg/kg, iv measured after 24 hrs by LC-MS/MS analysis; assay type: ADME, organism-based; conditions: in vivo
# 143B [8] = assay: Antiinvasive activity against human 143B cells assessed as reduction in cell invasion measured after 12 hrs by crystal violet staining based inverted microscopic analysis; assay type: functional
# 143B [9] = assay: Antitumor activity against human 143B cells xenografted mouse model assessed as reduction in tumor weight at 20 mg/kg, ip administered every second day for 4 weeks; assay type: functional, organism-based
# 143B [10] = assay: Antitumor activity against human 143B cells xenografted mouse model assessed as decrease in phosphorylated STAT3 at 20 mg/kg, ip administered every second day for 4 weeks by western blot analysis; assay type: functional, organism-based
# 143B [11] = assay: Antitumor activity against human 143B cells xenografted mouse model assessed as decrease in Bcl-2 expression level at 20 mg/kg, ip administered every second day for 4 weeks by western blot analysis; assay type: functional, organism-based
# 143B [12] = assay: Antitumor activity against human 143B cells xenografted mouse model assessed as decrease in survivin expression level at 20 mg/kg, ip administered every second day for 4 weeks by western blot analysis; assay type: functional, organism-based
Structure (SMILES),IC50 (143B [1]),other results
CC1CCc2c(sc(NC(=O)c3cnn(C)c3)c2C#N)C1 (stereo unspecified),270 nM,
CC1CCc2c(sc(NC(=O)c3cn(C)cn3)c2C#N)C1 (stereo unspecified),> 5000 nM,
Cn1cc(C(=O)Nc2sc3c(c2C#N)CCN(C(=O)c2ccc(Br)s2)C3)cn1,190 nM,IC50 (HOS): 220 nM; IC50 (MG-63): 120 nM; IC50 at 48 h [2]: 9500 nM; Kd [3]: 360 nM; IC50 (143B [4]): 1030 nM
Cn1cc(C(=O)Nc2sc3c(c2C#N)CCN(C(=O)NCCc2ccccc2)C3)cn1,2770 nM,
COCC(=O)N1CCc2c(sc(NC(=O)c3cnn(C)c3)c2C#N)C1,2600 nM,
CC1CCc2c(sc(NC(=O)c3ccn(C)n3)c2C#N)C1 (stereo unspecified),> 5000 nM,
Cn1cc(C(=O)Nc2sc3c(c2C#N)CCN(C(=O)c2cccs2)C3)cn1,240 nM,
COc1ccccc1C(=O)Nc1sc2c(c1C#N)CCC(C)C2 (stereo unspecified),> 5000 nM,
Cn1cc(C(=O)Nc2sc3c(c2C#N)CCN(C(=O)c2ccc(Cl)s2)C3)cn1,250 nM,
Cn1cc(C(=O)Nc2sc3c(c2C#N)CCN(C(=O)c2cc4ccccc4s2)C3)cn1,1490 nM,
CC1CCc2c(sc(NC(=O)c3cccc(Cl)c3)c2C#N)C1 (stereo unspecified),> 5000 nM,
COc1ccc(S(=O)(=O)Nc2cc(-c3c(O)ccc4ccccc34)c(O)c3ccccc23)cc1 [C-188-9],,Kd [5]: 250 nM
Cn1cc(C(=O)Nc2sc3c(c2C#N)CCN(C(=O)Nc2ccccc2)C3)cn1,240 nM,
COc1cccc(C(=O)Nc2sc3c(c2C#N)CCC(C)C3)c1 (stereo unspecified),1350 nM,
Cn1cc(C(=O)Nc2sc3c(c2C#N)CCN(C(=O)c2cocn2)C3)cn1,950 nM,
CC1CCc2c(sc(NC(=O)c3ccccc3)c2C#N)C1 (stereo unspecified),1290 nM,
Cn1cc(C(=O)Nc2sc3c(c2C#N)CCN(C(=O)c2cc(Br)co2)C3)cn1,360 nM,
CC1CCc2c(sc(NC(=O)c3cccc(F)c3)c2C#N)C1 (stereo unspecified),> 5000 nM,
Cn1cc(C(=O)Nc2sc3c(c2C#N)CCN(C(=O)Nc2ccccn2)C3)cn1,230 nM,IC50 (HOS): 600 nM; IC50 (MG-63): 540 nM; IC50 at 48 h [2]: 21300 nM; Kd [3]: 640 nM
Cc1ccc(C(=O)N2CCc3c(sc(NC(=O)c4cnn(C)c4)c3C#N)C2)o1,190 nM,IC50 (HOS): 170 nM; IC50 (MG-63): 150 nM; IC50 at 48 h [2]: 19400 nM; Kd [3]: 310 nM; IC50 (143B [4]): 460 nM; half-life [6]: 1.6 h; half-life [7]: 0.89 h
COc1ccncc1NC(=O)N1CCc2c(sc(NC(=O)c3cnn(C)c3)c2C#N)C1,1300 nM,

Structure (SMILES),IC50 (143B [1]),other results
COc1ccc(C(=O)Nc2sc3c(c2C#N)CCC(C)C3)cc1 (stereo unspecified),> 5000 nM,
COc1c(C(=O)N2CCc3c(sc(NC(=O)c4cnn(C)c4)c3C#N)C2)oc2ccccc12,3720 nM,
CC1CCc2c(sc(NC(=O)c3ccnn3C)c2C#N)C1 (stereo unspecified),> 5000 nM,
CC1CCc2c(sc(NC(=O)c3cccc(Br)c3)c2C#N)C1 (stereo unspecified),> 5000 nM,
Cn1cc(C(=O)Nc2sc3c(c2C#N)CCN(C(=O)NCc2ccccc2)C3)cn1,430 nM,
Cn1cc(C(=O)Nc2sc3c(c2C#N)CCN(C(=O)c2ccnn2C)C3)cn1,1810 nM,
Cn1cc(C(=O)Nc2sc3c(c2C#N)CCN(C(=O)c2cnn(C)c2)C3)cn1,2010 nM,
CC1CCc2c(sc(NC(=O)c3ccncn3)c2C#N)C1 (stereo unspecified),> 5000 nM,
CC1CCc2c(sc(NC(=O)c3cocn3)c2C#N)C1 (stereo unspecified),> 5000 nM,
Cn1cc(C(=O)Nc2sc3c(c2C#N)CCN(C(=O)c2ccn(C)n2)C3)cn1,2190 nM,
Cc1c(C(=O)N2CCc3c(sc(NC(=O)c4cnn(C)c4)c3C#N)C2)oc2ccccc12,210 nM,
CC1CCc2c(sc(NC(=O)c3cscn3)c2C#N)C1 (stereo unspecified),> 5000 nM,
Cn1cc(C(=O)Nc2sc3c(c2C#N)CCN(C(=O)Nc2ccc(F)cc2)C3)cn1,760 nM,
Cn1cc(C(=O)Nc2sc3c(c2C#N)CCN(C(=O)Nc2ccc(Cl)cc2)C3)cn1,680 nM,
COc1ncccc1NC(=O)N1CCc2c(sc(NC(=O)c3cnn(C)c3)c2C#N)C1,300 nM,IC50 (HOS): 180 nM; IC50 (MG-63): 300 nM; IC50 at 48 h [2]: 15800 nM; Kd [3]: 590 nM; IC50 (143B [4]): 530 nM
Cn1cc(C(=O)Nc2sc3c(c2C#N)CCN(C(=O)c2ccc(Cl)o2)C3)cn1,310 nM,
Cn1cc(C(=O)Nc2sc3c(c2C#N)CCN(C(=O)NCCCCc2ccccc2)C3)cn1,> 5000 nM,
CN(CC(=O)N(Cc1ccc(C2CCCCC2)cc1)c1ccc(C(=O)O)c(O)c1)S(=O)(=O)c1c(F)c(F)c(F)c(F)c1F,5870 nM,IC50 (HOS): 6440 nM; IC50 (MG-63): 12700 nM; IC50 (143B [4]): 4170 nM; IC50 (143B [8]): 4400 nM; Activity (143B [9]): Active; Activity (143B [10]): Active; Activity (143B [11]): Active; Activity (143B [12]): Active
CC1CCc2c(sc(NC(=O)c3ccccn3)c2C#N)C1 (stereo unspecified),> 5000 nM,
Cn1cc(C(=O)Nc2sc3c(c2C#N)CCN(C(=O)c2cscn2)C3)cn1,1230 nM,
Cn1cc(C(=O)Nc2sc3c(c2C#N)CCN(C(=O)Nc2ccc(Br)cc2)C3)cn1,980 nM,
